Legend:
Test in all cases: relative viability (nuclei count vs DMSO), 5 days (fraction); higher = more cells survive
NCI-H2405 = system: NCI-H2405
Summary of the method: (§1)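 Lung cancer cell lines in 1536-well plates got either a single drug or a fixed anchor-drug dose together with five library-drug doses (not always all listed) in √10 steps, by pin tool, on the day after seeding. Nuclei were counted after 5 days, and relative viability is the treated-to-vehicle ratio of nuclei counts. Values are medians of duplicate plates.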

NCI-H2126 = system: NCI-H2126
Summary of the method: as §1

SK-LU-1 = system: SK-LU-1
Summary of the method: as §1

NCI-H1944 = system: NCI-H1944
Summary of the method: as §1

HCC-15 = system: HCC-15
Summary of the method: as §1

HARA = system: HARA
Summary of the method: as §1

NCI-H2228 = system: NCI-H2228
Summary of the method: as §1

LC-2-ad = system: LC-2-ad
Summary of the method: as §1

ABC-1 = system: ABC-1
Summary of the method: as §1

NCI-H23 = system: NCI-H23
Summary of the method: as §1

COR-L23 = system: COR-L23
Summary of the method: as §1

ChaGo-K-1 = system: ChaGo-K-1
Summary of the method: as §1

NCI-H358 = system: NCI-H358
Summary of the method: as §1

NCI-H1793 = system: NCI-H1793
Summary of the method: as §1

HCC-366 = system: HCC-366
Summary of the method: as §1

NCI-H1395 = system: NCI-H1395
Summary of the method: as §1

HCC-78 = system: HCC-78
Summary of the method: as §1

EMC-BAC-2 = system: EMC-BAC-2
Summary of the method: as §1

NCI-H1993 = system: NCI-H1993
Summary of the method: as §1

NCI-H838 = system: NCI-H838
Summary of the method: as §1

HOP-62 = system: HOP-62
Summary of the method: as §1

NCI-H2023 = system: NCI-H2023
Summary of the method: as §1

O=c1cc(-c2cccc3c2Sc2ccccc2S3)oc(N2CCOCC2)c1 + Cc1cc(Nc2cc(N3CCN(C)CC3)nc(Sc3ccc(NC(=O)C4CC4)cc3)n2)n[nH]1 [Tozasertib] (partner 0.1 µM)
relative viability (NCI-H2405; first compound 0.08 µM): 0.667
relative viability (NCI-H2405; first compound 0.253 µM): 0.752
relative viability (NCI-H2405; first compound 0.8 µM): 0.72
relative viability (NCI-H2405; first compound 2.53 µM): 0.638
relative viability (NCI-H2405; first compound 8 µM): 0.681
relative viability (NCI-H2126; first compound 0.08 µM): 0.825
relative viability (NCI-H2126; first compound 0.253 µM): 0.875
relative viability (NCI-H2126; first compound 0.8 µM): 0.824
relative viability (NCI-H2126; first compound 2.53 µM): 0.781
relative viability (NCI-H2126; first compound 8 µM): 0.788
relative viability (SK-LU-1; first compound 0.08 µM): 0.309
relative viability (SK-LU-1; first compound 0.253 µM): 0.312
relative viability (SK-LU-1; first compound 0.8 µM): 0.313
relative viability (SK-LU-1; first compound 2.53 µM): 0.269
relative viability (SK-LU-1; first compound 8 µM): 0.322
relative viability (NCI-H1944; first compound 0.08 µM): 0.252
relative viability (NCI-H1944; first compound 0.253 µM): 0.256
relative viability (NCI-H1944; first compound 0.8 µM): 0.23
relative viability (NCI-H1944; first compound 2.53 µM): 0.24
relative viability (NCI-H1944; first compound 8 µM): 0.232
relative viability (HCC-15; first compound 0.08 µM): 0.437
relative viability (HCC-15; first compound 0.253 µM): 0.428
relative viability (HCC-15; first compound 0.8 µM): 0.504
relative viability (HCC-15; first compound 2.53 µM): 0.39
relative viability (HCC-15; first compound 8 µM): 0.307
relative viability (HARA; first compound 0.08 µM): 0.099
relative viability (HARA; first compound 0.253 µM): 0.0933
relative viability (HARA; first compound 0.8 µM): 0.112
relative viability (HARA; first compound 2.53 µM): 0.133
relative viability (HARA; first compound 8 µM): 0.0897
relative viability (NCI-H2228; first compound 0.08 µM): 0.213
relative viability (NCI-H2228; first compound 0.253 µM): 0.186
relative viability (NCI-H2228; first compound 0.8 µM): 0.248
relative viability (NCI-H2228; first compound 2.53 µM): 0.163
relative viability (NCI-H2228; first compound 8 µM): 0.18
relative viability (LC-2-ad; first compound 0.08 µM): 0.389
relative viability (LC-2-ad; first compound 0.253 µM): 0.405
relative viability (LC-2-ad; first compound 0.8 µM): 0.484
relative viability (LC-2-ad; first compound 2.53 µM): 0.411
relative viability (LC-2-ad; first compound 8 µM): 0.435
relative viability (ABC-1; first compound 0.08 µM): 0.184
relative viability (ABC-1; first compound 0.253 µM): 0.203
relative viability (ABC-1; first compound 0.8 µM): 0.158
relative viability (ABC-1; first compound 2.53 µM): 0.181
relative viability (ABC-1; first compound 8 µM): 0.156
relative viability (NCI-H23; first compound 0.08 µM): 0.629
relative viability (NCI-H23; first compound 0.253 µM): 0.341
relative viability (NCI-H23; first compound 0.8 µM): 0.357
relative viability (NCI-H23; first compound 2.53 µM): 0.296
relative viability (NCI-H23; first compound 8 µM): 0.283
relative viability (COR-L23; first compound 0.08 µM): 0.202
relative viability (COR-L23; first compound 0.253 µM): 0.202
relative viability (COR-L23; first compound 0.8 µM): 0.188
relative viability (COR-L23; first compound 2.53 µM): 0.148
relative viability (COR-L23; first compound 8 µM): 0.172
relative viability (ChaGo-K-1; first compound 0.08 µM): 0.213
relative viability (ChaGo-K-1; first compound 0.253 µM): 0.215
relative viability (ChaGo-K-1; first compound 0.8 µM): 0.218
relative viability (ChaGo-K-1; first compound 2.53 µM): 0.21
relative viability (ChaGo-K-1; first compound 8 µM): 0.209
relative viability (NCI-H358; first compound 0.08 µM): 0.0969
relative viability (NCI-H358; first compound 0.253 µM): 0.101
relative viability (NCI-H358; first compound 0.8 µM): 0.12
relative viability (NCI-H358; first compound 2.53 µM): 0.0965
relative viability (NCI-H358; first compound 8 µM): 0.111
relative viability (NCI-H1793; first compound 0.08 µM): 0.362
relative viability (NCI-H1793; first compound 0.253 µM): 0.38
relative viability (NCI-H1793; first compound 0.8 µM): 0.325
relative viability (NCI-H1793; first compound 2.53 µM): 0.228
relative viability (NCI-H1793; first compound 8 µM): 0.245
relative viability (HCC-366; first compound 0.08 µM): 0.144
relative viability (HCC-366; first compound 0.253 µM): 0.367
relative viability (HCC-366; first compound 0.8 µM): 0.093
relative viability (HCC-366; first compound 2.53 µM): 0.0682
relative viability (HCC-366; first compound 8 µM): 0.0642
relative viability (NCI-H1395; first compound 0.08 µM): 0.755
relative viability (NCI-H1395; first compound 0.253 µM): 0.738
relative viability (NCI-H1395; first compound 0.8 µM): 0.762
relative viability (NCI-H1395; first compound 2.53 µM): 0.681
relative viability (NCI-H1395; first compound 8 µM): 0.703
relative viability (HCC-78; first compound 0.08 µM): 0.295
relative viability (HCC-78; first compound 0.253 µM): 0.457
relative viability (HCC-78; first compound 0.8 µM): 0.511
relative viability (HCC-78; first compound 2.53 µM): 0.384
relative viability (HCC-78; first compound 8 µM): 0.334
relative viability (EMC-BAC-2; first compound 0.08 µM): 0.242
relative viability (EMC-BAC-2; first compound 0.253 µM): 0.299
relative viability (EMC-BAC-2; first compound 0.8 µM): 0.295
relative viability (EMC-BAC-2; first compound 2.53 µM): 0.257
relative viability (EMC-BAC-2; first compound 8 µM): 0.293
relative viability (NCI-H1993; first compound 0.08 µM): 0.518
relative viability (NCI-H1993; first compound 0.253 µM): 0.55
relative viability (NCI-H1993; first compound 0.8 µM): 0.516
relative viability (NCI-H1993; first compound 2.53 µM): 0.559
relative viability (NCI-H1993; first compound 8 µM): 0.621
relative viability (NCI-H838; first compound 0.08 µM): 0.295
relative viability (NCI-H838; first compound 0.253 µM): 0.277
relative viability (NCI-H838; first compound 0.8 µM): 0.245
relative viability (NCI-H838; first compound 2.53 µM): 0.273
relative viability (NCI-H838; first compound 8 µM): 0.266
relative viability (HOP-62; first compound 0.08 µM): 0.452
relative viability (HOP-62; first compound 0.253 µM): 0.362
relative viability (HOP-62; first compound 0.8 µM): 0.426
relative viability (HOP-62; first compound 2.53 µM): 0.324
relative viability (HOP-62; first compound 8 µM): 0.397
relative viability (NCI-H2023; first compound 0.08 µM): 0.309
relative viability (NCI-H2023; first compound 0.253 µM): 0.295
relative viability (NCI-H2023; first compound 0.8 µM): 0.302
relative viability (NCI-H2023; first compound 2.53 µM): 0.216
relative viability (NCI-H2023; first compound 8 µM): 0.247

— the supplement of paper PMC10307832
